Measurements as given in a melting point compilation (Tetko et al.; mined from patent text by program, amines drawn as free bases though some values may be those of a salt).

| melting point [°C] | Structure (SMILES) |
| --- | --- |
| 129 | O=C1N(c2cc(Cl)cc(Cl)c2)C(=O)C2(Cc3ccc(Br)cc3)CCCCN12 (stereo not drawn) |
| 199 to 200 | Cc1nc2ccc(F)cc2n1C1CC2CC(=O)CC2C1 (stereo not drawn) |
| 220 to 221 | O=c1[nH]c2ccc(Br)cc2c(=O)n1CCCS |
| 120 to 124 | COCc1cnc2c([N+](=O)[O-])ccc(C)c2c1Cl |
| 118 to 120 | CC(C)c1c(C=C(Cl)Cl)c(-c2ccc(F)cc2)c2n1CCCC2 |
| 112 to 114 | CCOC(=O)C1=C(COCc2nnn(CCN3CCN(C(=O)NC)CC3)n2)NC(C)=C(C(=O)OC)C1c1cccc(Cl)c1Cl (stereo not drawn) |
| 253 to 255 | O=C(O)C1=Cc2cc(Cl)c(Oc3ccc4cc(Br)ccc4c3)cc2OC1C(F)(F)F (stereo not drawn) |
| 215 to 217 | CCCc1nc2c(N)nc3cc(OCc4ccc(Cl)cc4)ccc3c2n1CC(C)C |
| 127 to 128 | COC(=O)c1c(Cl)cc(C)nc1Oc1c(C)cc(C)cc1C |
| 128 to 130 | COCCn1nc2ccccc2c1C(=O)NCC1CCN(CCc2ccccc2F)CC1 |
| 149 to 150 | Cn1c(=O)ccc2cc(COc3cccc(C4(C#N)CCOCC4)c3)ccc21 |
| 149 | CCC(CC)CC(C)(NC(CO)c1ccccc1)C(=O)O (stereo not drawn) |
| 210 to 212 | Cc1nnc(N2CCC(N3c4ccccc4N(C)S3(=O)=O)CC2)n1-c1ccc(Cl)cc1 |
| 116 to 118 | COc1ccc(-c2cc(Cl)c3cc(O)ccc3c2)cc1 |
| 248 to 250 | O=C(O)c1ccc2c(Br)cccc2c1 |
| 150 to 155 | COc1ccc(-c2ncccc2O)cc1OC |
| 134 to 135 | CSc1cccc(NC(C)=N)c1 |
| 233 to 235 | Cc1cc(C=CC#N)cc(C(=O)c2[nH]c(=O)[nH]c(=O)c2C(C)C)c1 |
| 165 | CC1(C)CCc2c(N)c(Cl)cc(C(=O)O)c2O1 |
| > 280 | CNc1cc2c(cc1C)c(=O)c(C(=O)O)cn2-c1cc(N)c(F)cc1F |
| 91 to 93 | c1ccc(CSc2nc3sccn3n2)cc1 |
| 74 to 75.5 | Cc1cc(C)c(C=O)c(O)c1C |
| 130 | CCOC(=O)c1c(C(F)(F)F)nc(-c2ccccc2)c(-c2ccccc2)c1O |
| 202 to 204 | COc1ccc2c(c1)C(C)(Cl)C(=S)N2 (stereo not drawn) |
| 154 to 155 | COCC(COC)Nc1cc(C)nn2c(-c3ccc(Cl)cc3Cl)c(C)cc12 |

| melting point [°C] | Structure (SMILES) |
| --- | --- |
| 69 to 70 | O=C(Cl)c1ccc2c(c1I)OCO2 |
| 202 to 204 | Oc1ccc(C2=C(c3ccc(OCCCCCI)cc3)c3ccc(O)cc3CCC2)cc1 |
| 218 to 220 | CC(C)CCNC(=O)c1ccc(-c2nn(Cc3cccc(Cl)c3)c(=S)[nH]2)cc1 |
| 231 to 234 | NC(=O)c1cccc(-c2noc(-c3ccccc3F)n2)c1 |
| 188 to 189 | COCc1c(C(=O)OC(C)C)ncc2[nH]c3cccc(Oc4ccccn4)c3c12 |
| 103 | c1csc(-c2nc3ccccc3nc2OC2CCC2)c1 |
| 62 to 65 | CCOC(=O)C(Cc1ccc(OC)cc1)c1cc2cc(Br)ccc2s1 (stereo not drawn) |
| 93.2 | O=C(c1cccc(Cl)c1)c1cc(F)nc2ccccc12 |
| 173 to 174 | COc1cc(C(C#N)CCC(C#N)c2cc(OC)c(OC)c(OC)c2)cc(OC)c1OC (stereo not drawn) |
| 298 to 300 | O=c1ccc2c(-n3cnc([N+](=O)[O-])c3)nccc2[nH]1 |
| 132 to 133 | COc1cccc2c1-c1c(ccn1CCNC(C)=O)CC2 |
| 98 to 100 | CC(O)(CCCl)c1ccc(-c2cccc(Cl)c2)cc1 (stereo not drawn) |
| 102 | CC(=O)c1cc(-c2ccc(C)cc2)c2c(c1)C(C)(C)CCC2(C)C |
| 48 to 52 | COc1ccc(S(=O)(=O)N(Cc2ccccc2)[C@H](CC(C)C)C(=O)NO)cc1 |
| 126 to 142 | CC(C)CN(C[C@H](O)COc1cccc2[nH]c3ccccc3c12)c1ccc(Oc2ccc(C(N)=O)cn2)cc1 |
| 246 to 249 | Cc1cn(-c2ccc(C(=N)N)cc2)c(=O)n1-c1ccc(CCC(=O)OC(C)C)cc1 |
| 222 | COc1ccc(-n2c(CC(=O)O)c(C(=O)O)c3cc(Oc4ccc(S(C)(=O)=O)cc4)ccc32)cc1 |
| 173 to 175 | COc1cc2c(cc1Br)-c1c(-c3cccs3)c3c(n1CC2)C(=O)N(C)C(C)(C)CC3 |
| 195 to 197 | CC(C)(C)c1cc(CCc2ccc(NC(=O)NC3CCN(Cc4ccccc4)CC3)cc2)cc(C(C)(C)C)c1O |
| 190 to 192 | COc1cc(Cc2cnc(NOC3CCCCO3)nc2NO)cc(OC)c1OC (stereo not drawn) |
| 64 to 67 | CC(C)(C)c1cc(CCc2ccccc2NC(=O)N2CCC(N3CCCCC3)CC2)cc(C(C)(C)C)c1O |
| 69 to 70 | c1ccc(Cn2cc3c(c2)OCCO3)cc1 |
| 48.5 to 50 | CC(C)Oc1nc(C#N)c(C#N)nc1Cl |
| 268 to 270 | C[C@H]1COc2c(N3CC(C)(N)C4(CC4)C3)c(F)cc3c(=O)c(C(=O)O)cn1c23 (stereo partly drawn) |
| 285 to 286 | CNc1nc(-c2cccnc2)nc(NC)c1C(=O)Nc1ccc(C)c(C)c1 |

| melting point [°C] | Structure (SMILES) |
| --- | --- |
| 172 to 174 | C=CCN(CC=C)c1nc(NC(=O)OCC)n2oc(=O)nc2n1 |
| 97 to 98 | CC(=O)c1cc(Cl)c(N)cc1F |
| 169 to 171 | COc1ccc(-c2ccc3cc(CO)ccc3c2)cc1C12CC3CC(CC(C3)C1)C2 |
| 196 to 198 | CCOC(=O)c1cn(C2CC2)c2oc(CN3CCOCC3)cc2c1=O |
| 168 to 169 | COc1cc(O)c2c(=O)c(OC)c(-c3ccc(OC(C)=O)c(OC)c3)oc2c1 |
| 93 to 95 | Clc1ccc(Oc2ccccc2Oc2ncc(Br)cn2)nc1 |
| 150 to 151 | CCOC(=O)Nc1ccc(NCc2coc3ccc(F)cc23)cc1N |
| 134 | OCCC#Cc1ccc(-c2ccc(F)cc2)cc1 |
| 79.5 | COC(=O)[C@@H]1C[C@H](OC(=O)c2ccc([N+](=O)[O-])cc2)C[C@H]1C(=O)OCc1ccccc1 |
| 133 to 135 | CN1C[C@H]2Cc3ccc(Cl)cc3[C@H](c3ccc(Cl)cc3)[C@H]2C1 (racemic) |
| 138 to 147 | CCCCCCC(C(=O)Nc1ccccc1O)n1cnc(NC(=O)c2ccccc2S(=O)(=O)O)c1 (stereo not drawn) |
| 214 to 216 | O=C1CCCCC1Oc1ccc(-c2c(-c3ccccc3)nn3ccccc23)nn1 (stereo not drawn) |
| 198 to 200 | COc1ccc(S)nn1 |
| 88 to 89 | COc1cc(CC(C)(C)C(=O)O)cc2c1OC(C)(C)C2 |
| 83 to 84 | Fc1cccc(F)c1-c1nc(COc2ccc(Oc3ccc(C(F)(F)F)cc3)cc2)no1 |
| 106 to 108 | CCOC(=O)c1cn2c3c(ccc(C)c3c1=O)CCC2C (stereo not drawn) |
| 95 | CC(C)(C)c1ccc(CNC(=O)NCc2ccc(NS(C)(=O)=O)c(F)c2)cc1 |
| 91 to 97 | N#CC(c1cccnc1)C1CCN(C(=O)CC(NC(=O)c2cccc(OCc3ccc4ccccc4n3)c2)c2ccccc2)CC1 (stereo not drawn) |
| 194 to 198 | O=C1Nc2ccccc2C(c2ccc(Cl)cc2)CC1Br (stereo not drawn) |
| 202 to 204 | CCOC(=O)c1cccc2c1Cc1c-2[nH]c2ccc(Cl)cc12 |
| 252 to 254 | COc1cc2ncnc(N3CCN(C(=O)Nc4ccc(-n5cccc5)nc4)CC3)c2cc1OC |
| 243 to 244 | CS(=O)(=O)c1ccc(-c2cc(C(F)(F)F)nn2-c2ccc(O)cc2)cc1 |
| 143 to 149 | O=C1c2cc(O)ccc2NCC1Cc1ccccc1 (stereo not drawn) |
| 252 | CS(=O)(=O)c1ccc(Cl)c(-c2n[nH]c3nc(Oc4ccc(F)cc4F)ncc23)c1 |
| 90 to 91 | Cc1cccc(-c2nnc(-c3ccccc3Cc3ccccc3)nn2)c1 |

| melting point [°C] | Structure (SMILES) |
| --- | --- |
| 119 to 122 | COc1ccc(C(=O)c2cccc(S(N)(=O)=O)c2)cc1 |
| 112 to 119 | CON1C(=O)CC2(CCN(CCNC(=O)c3cccnc3)CC2)C1=O |
| 135 to 138 | O=[N+]([O-])c1c(NC2CC2)ncnc1N1CCc2ccccc2CC1 |
| 188 to 190 | Cc1cc(C)cc(NC(=O)c2cc(Br)ccc2O)c1 |
| 95 to 96 | COc1c(C)c(C=O)c(OC)c2ccccc12 |
| 95 to 96 | COC(=O)c1cccc(CNC(=O)OC(C)(C)C)c1O |
| 226 | O=C(N[C@H]1CC[C@H](CCN2CCN(c3nccc4c3OCC4)CC2)CC1)c1ccc(-n2cccn2)cc1 |
| 150 | CN(C)c1ccc(C#N)nn1 |
| 76 to 80 | CCCCCCCCCCCCCCCCCCC(N)(CO)CO |
| 205 to 207 | NC(=S)Cn1c(=O)sc2ccccc21 |
| 222 to 223 | N#Cc1ccc(-c2ccc(C#N)c(Cn3cncn3)c2)cc1 |
| 195 to 196 | CCC(C)(C)Nc1c(NCc2cc(Cl)ccc2Cl)c(=O)c1=O |
| 160 to 161 | Nc1ccc(S(=O)(=O)Nc2ccc(C(O)(C(F)(F)F)C(F)(F)F)cc2)cc1 |
| 67 to 68 | CCCCCCCCCCCCC(C)(CO)CO |
| 63 to 67 | COC(=O)C(=COC(F)F)c1ccccc1CBr |
| 228 to 232 | COc1ccc(-c2nnc(S)nc2-c2ccc(OC)cc2)cc1 |
| 222 to 224 | O=C(O)c1n[nH]c(=O)c2cc(F)ccc12 |
| 72 | CCS(=O)(=O)N(C)C1CCN(c2ccccc2)c2ccccc21 (stereo not drawn) |
| 136 | COc1c(C(=O)O)[nH]c2cccc(C)c12 |
| 238 to 240 | CN1CCN(c2n[nH]c(-c3ccc(F)cc3)c2-c2ccncc2)CC1 |
| 121 to 122 | COC(=O)c1ccc(OC2=C3N=C4CCCCC4=C3C(Cc3ccccc3F)C=C2)o1 (stereo not drawn) |
| 56 to 58 | Cc1nc2cnccc2o1 |
| 109 to 111 | CN1C(=O)CC[C@]2(C)c3ccc(-c4cccc(NC(c5ccccc5)c5ccccc5)c4)cc3CC[C@@H]12 |

| Structure (SMILES) | melting point [°C] |
| --- | --- |
| Fc1ccc(Cn2c(NC3CCN(CCc4ccccn4)CC3)nc3cncnc32)cc1 | 172 |
| CCOP(=S)(OCC)Oc1nsc(N(C)C)n1 | 48 |
| CC1(C)OCc2cccc(Cc3c[nH]cn3)c2O1 | 160 to 170 |
| CCCc1c(C(=O)C(C)C)c2ccc(C(N)=O)cc2n1Cc1ccc(Cl)cc1 | 183 to 184 |
| O=C(c1ccccc1)c1cc(Cl)ccc1-n1c(Br)nnc1CN1C(=O)c2ccccc2C1=O | 202 to 204 |
